Results published in patent US12162888B2, “Carboxamides as ubiquitin-specific protease inhibitors” (Valo Early Discovery, Inc., priority 2018, dated 2024).
Where two headings read alike, the source gives them in different places.

Biological target: T1, USP28 (His-tagged USP28-FL-mammalian) (Homo sapiens, UniProt Q96RU2)
T1 construct: Expression of USP28 (1-1077)-TEV-6*His (pTT5 vector) was carried out in Expi293f cells; made in house; host or cells: Expi293F cells (pTT5 vector)
T1 sequence (Q96RU2 1-1077): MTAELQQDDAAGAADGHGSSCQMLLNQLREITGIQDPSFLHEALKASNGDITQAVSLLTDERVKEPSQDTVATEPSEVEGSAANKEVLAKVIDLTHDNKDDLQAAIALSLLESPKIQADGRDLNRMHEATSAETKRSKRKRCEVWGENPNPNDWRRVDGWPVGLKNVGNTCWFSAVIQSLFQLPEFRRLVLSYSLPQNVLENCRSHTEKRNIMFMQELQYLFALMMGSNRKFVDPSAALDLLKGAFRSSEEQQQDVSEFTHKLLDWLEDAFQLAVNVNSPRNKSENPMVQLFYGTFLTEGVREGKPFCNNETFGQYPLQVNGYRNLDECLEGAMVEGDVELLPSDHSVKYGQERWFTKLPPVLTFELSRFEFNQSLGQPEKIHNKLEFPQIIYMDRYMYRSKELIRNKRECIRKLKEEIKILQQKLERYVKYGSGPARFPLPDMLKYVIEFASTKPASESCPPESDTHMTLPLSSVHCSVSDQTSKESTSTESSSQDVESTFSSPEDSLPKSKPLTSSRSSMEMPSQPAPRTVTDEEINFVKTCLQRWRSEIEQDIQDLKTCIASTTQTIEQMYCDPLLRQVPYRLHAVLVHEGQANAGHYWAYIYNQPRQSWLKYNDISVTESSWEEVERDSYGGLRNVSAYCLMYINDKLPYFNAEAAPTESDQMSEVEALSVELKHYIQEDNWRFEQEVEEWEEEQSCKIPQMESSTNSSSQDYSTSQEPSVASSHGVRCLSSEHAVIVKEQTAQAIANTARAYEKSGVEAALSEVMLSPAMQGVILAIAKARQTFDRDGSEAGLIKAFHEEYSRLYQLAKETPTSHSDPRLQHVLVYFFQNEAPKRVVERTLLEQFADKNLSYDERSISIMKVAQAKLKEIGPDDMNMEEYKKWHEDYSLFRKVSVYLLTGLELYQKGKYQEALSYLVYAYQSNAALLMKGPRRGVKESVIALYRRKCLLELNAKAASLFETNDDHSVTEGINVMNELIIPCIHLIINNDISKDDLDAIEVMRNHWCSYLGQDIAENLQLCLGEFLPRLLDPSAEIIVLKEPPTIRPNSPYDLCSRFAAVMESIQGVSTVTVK
Experiment: Ubiquitin-Rhodamine 110 Assay for USP28 Activity, Example A-1(a)
Assay type: biochemical
Description: Example A-1(a): Biochemical Assay: Ubiquitin-Rhodamine 110 Assay for USP28 Activity
The assay was performed in a final volume of 9 μL in assay buffer containing 20 mM Tris-HCl (pH 8.0, (1M Tris-HCl, pH 8.0 solution; Corning 46-031-CM)), 3 mM BME (2-Mercaptoethanol; Sigma 63689-25ML-F), 0.03% BGG (0.22 μM filtered, Sigma, G7516-25G), and 0.01% Triton X-100 (Sigma, T9284-10L). Nanoliter quantities of 10-point, 3-fold serial dilution in DMSO was pre-dispensed into 1536 assay plates (Corning, #3724BC) for a final test concentration of 25 μM to 1.3 nM, top to lowest dose, respectively. Enzyme USP28, construct His-tagged USP28-FL-mammalian, (protein expression and purification procedure described below). Concentration and incubation times were optimized for the maximal signal-to-background while maintaining initial velocity conditions at a fixed substrate concentration. The final concentration of the enzyme in the assay was […]. Final substrate (Ub-Rh110; Ubiquitin-Rhodamine 110, UbiQ-126) concentration was 25 nM with [Ub-Rh110]<<Km. 3 μL of 2× enzyme was added to assay plates (pre-stamped with compound) preincubated with […] for 30 minutes and then 3 μL of 2× Ub-Rh110 was added to assay plates. Plates were incubated for 45 minutes at room temperature before addition of 3 μL of stop solution (final concentration of 10 mM citric acid (Sigma, 251275-500G)). Fluorescence was read on the Envision (Excitation at 485 nm and Emission at 535 nm; Perkin Elmer) or on the PheraSTAR (Excitation at 485 nm and Emission at 535 nm; BMG Labtech).
Procedure for the Protein expression and purification for construct His-tagged USP28-FL-mammalian
Expression of USP28 (1-1077)-TEV-6*His (pTT5 vector) was carried out in Expi293f cells (sequence derived from uniprot ID: Q96RU2-1). Cells were re-suspended in lysis buffer B 50 mM Bicine, pH 8.0, 20 mM NaCl, 5% glycerol, 0.1% CHAPS, 5 mM β-ME, 1 mM PMSF, 1 ug/ml Leupeptin, 1 ug/ml Pepstatin) and lysed by sonication. Insoluble material was removed by centrifugation and the supernatant was loaded onto a Ni-NTA column (GE Healthcare) equilibrated with Ni Buffer A (50 mM Bicine, pH 8.0, 20 mM NaCl, 5% glycerol, 0.1% CHAPS, 5 mM R-ME.) and washed with Ni Buffer A+20 mM imidazole until A280 reached baseline. The protein was eluted with Ni Buffer B (50 mM Bicine, pH 8.0, 20 mM NaCl, 5% glycerol, 0.1% CHAPS, 5 mM β-ME, 300 mM imidazole.). The protein was further purified using a Superdex™ 200 10/300 GL column (GE Healthcare) equilibrated with 50 mM Bicine, pH 8.0, 20 mM NaCl, 5% glycerol, 0.1% CHAPS, 5 mM β-ME. The protein was concentrated to 2.5 mg ml-1, flash-frozen in liquid N2 and stored at −80° C.
For assay formats Example A-1(a), A-1(b), and A-2, data were reported as percent inhibition compared with control wells based on the following equation: % inh=1−((FLU−AveLow)/(AveHigh−AveLow)) where FLU=measured Fluorescence, AveLow=average Fluorescence of no enzyme control (n=16), and AveHighh=average Fluorescence of DMSO control (n=16). IC50 values were determined by curve fitting of the standard 4 parameter logistic fitting algorithm included in the Activity Base software package: IDBS XE Designer Model 205. Data is fitted using the Levenburg Marquardt algorithm.

[1] = Ubiquitin-Rhodamine 110 biochemical assay, read-out: USP28 A-1(a) IC50 range
[2] = biochemical IC50 range, Ubiquitin-Rhodamine 110 assay, read-out: USP28 A-1(a)

| Compound | IC50 [1] | IC50 [2] |
| --- | --- | --- |
| Cc1ccc2c(N)c(C(=O)N[C@H]3CCc4nc(N5C[C@H](N)[C@@]6(C5)OCC[C@@H]6C)ccc4C3)sc2n1 [Example 509, 3-amino-N-[(6S)-2-[(4S,5R,9S)-9-amino-4-methyl-1-oxa-7-azaspiro[4.4]nonan-7-yl]-5,6,7,8-tetrahydroquinolin-6-yl]-6-methylthieno[2,3-b]pyridine-2-carboxamide] | 0.05 to 0.2 µM |  |
| Cc1ccc2c(N)c(C(=O)N[C@H]3CCc4nc(N5C[C@H](N)[C@@]6(C5)OCC[C@H]6C)ccc4C3)sc2n1 [Example 510, 3-amino-N-[(6S)-2-[(4R,5R,9S)-9-amino-4-methyl-1-oxa-7-azaspiro[4.4]nonan-7-yl]-5,6,7,8-tetrahydroquinolin-6-yl]-6-methylthieno[2,3-b]pyridine-2-carboxamide] | 0.05 to 0.2 µM |  |
| Cc1ccc2c(N)c(C(=O)N[C@H]3CCc4nc(N5C[C@@H](N)[C@]6(C5)OCC[C@@H]6C)ccc4C3)sc2n1 [Example 511, 3-amino-N-[(6S)-2-[(4S,5S,9R)-9-amino-4-methyl-1-oxa-7-azaspiro[4.4]nonan-7-yl]-5,6,7,8-tetrahydroquinolin-6-yl]-6-methylthieno[2,3-b]pyridine-2-carboxamide] | 0.2 to 2 µM |  |
| Cc1ccc2c(N)c(C(=O)N[C@H]3CCc4nc(N5C[C@@H](N)[C@]6(C5)OCC[C@H]6C)ccc4C3)sc2n1 [Example 512, 3-amino-N-[(6S)-2-[(4R,5S,9R)-9-amino-4-methyl-1-oxa-7-azaspiro[4.4]nonan-7-yl]-5,6,7,8-tetrahydroquinolin-6-yl]-6-methylthieno[2,3-b]pyridine-2-carboxamide] | 0.05 to 0.2 µM |  |
| COC[C@@H]1CN(c2ccc3c(n2)CC[C@H](NC(=O)c2sc4nc(C)c(F)cc4c2N)C3)C[C@@H]1N [Example 513, 3-amino-N-[(6S)-2-[(3R,4R)-3-amino-4-(methoxymethyl)pyrrolidin-1-yl]-5,6,7,8-tetrahydroquinolin-6-yl]-5-fluoro-6-methylthieno[2,3-b]pyridine-2-carboxamide] | 0.05 to 0.2 µM |  |
| CN[C@H]1CN(c2ccc3c(n2)CC[C@H](NC(=O)c2sc4nc(C)c(F)cc4c2N)C3)C[C@@H]1COC [Example 515, 3-amino-5-fluoro-N-[(6S)-2-[(3S,4R)-3-(methoxymethyl)-4-(methylamino)pyrrolidin-1-yl]-5,6,7,8-tetrahydroquinolin-6-yl]-6-methylthieno[2,3-b]pyridine-2-carboxamide] | 0.05 to 0.2 µM |  |
| Cc1ccc2c(N)c(C(=O)N[C@H]3CCc4nc(N5C[C@@H](COC(F)F)[C@@H](N)C5)ccc4C3)sc2n1 [Example 516, 3-amino-N-[(6S)-2-[(3R,4R)-3-amino-4-[(difluoromethoxy)methyl]pyrrolidin-1-yl]-5,6,7,8-tetrahydroquinolin-6-yl]-6-methylthieno[2,3-b]pyridine-2-carboxamide] | 0.05 to 0.2 µM |  |
| Cc1ccc2c(N)c(C(=O)N[C@H]3CCc4nc(N5C[C@H](COC(F)F)[C@H](N)C5)ccc4C3)sc2n1 [Example 517, 3-amino-N-[(6S)-2-[(3S,4S)-3-amino-4-[(difluoromethoxy)methyl]pyrrolidin-1-yl]-5,6,7,8-tetrahydroquinolin-6-yl]-6-methylthieno[2,3-b]pyridine-2-carboxamide] | 0.05 to 0.2 µM |  |
| Cc1ccc2c(N)c(C(=O)N[C@H]3CCc4nc(N5C[C@@H](N)CC(F)(F)C5)ccc4C3)sc2n1 [Example 518, 3-amino-N-[(6S)-2-[(5S)-5-amino-3,3-difluoropiperidin-1-yl]-5,6,7,8-tetrahydroquinolin-6-yl]-6-methylthieno[2,3-b]pyridine-2-carboxamide] | 0.001 to 0.05 µM |  |
| Cc1ccc2c(N)c(C(=O)N[C@H]3CCc4nc(N5C[C@H](N)CC(F)(F)C5)ccc4C3)sc2n1 [Example 519, 3-amino-N-[(6S)-2-[(5R)-5-amino-3,3-difluoropiperidin-1-yl]-5,6,7,8-tetrahydroquinolin-6-yl]-6-methylthieno[2,3-b]pyridine-2-carboxamide] | 0.001 to 0.05 µM |  |
| CCO[C@H]1CN(c2ccc3c(n2)CC[C@H](NC(=O)c2sc4nc(C)cnc4c2N)C3)C[C@@H]1N [Example 520, 7-amino-N-[(6S)-2-[(3S,4S)-3-amino-4-ethoxypyrrolidin-1-yl]-5,6,7,8-tetrahydroquinolin-6-yl]-3-methylthieno[2,3-b]pyrazine-6-carboxamide] | 0.2 to 2 µM |  |
| Cc1ccc2c(N)c(C(=O)N[C@H]3COc4nc(N5C[C@@H](CF)[C@@H](N)C5)ccc4C3)sc2n1 [Example 539, 3-amino-N-[(3R)-7-[(3R,4R)-3-amino-4-(fluoromethyl)pyrrolidin-1-yl]-2H,3H,4H-pyrano[2,3-b]pyridin-3-yl]-6-methylthieno[2,3-b]pyridine-2-carboxamide] |  | 0.05 to 0.2 µM |
| Cc1ccc2c(N)c(C(=O)N[C@H]3COc4nc(N5C[C@H](CF)[C@H](N)C5)ccc4C3)sc2n1 [Example 540, 3-amino-N-[(3R)-7-[(3S,4S)-3-amino-4-(fluoromethyl)pyrrolidin-1-yl]-2H,3H,4H-pyrano[2,3-b]pyridin-3-yl]-6-methylthieno[2,3-b]pyridine-2-carboxamide] |  | 0.05 to 0.2 µM |
| Cc1ccc2c(N)c(C(=O)N[C@H]3COc4nc(N5C[C@H](CF)[C@@H](N)C5)ccc4C3)sc2n1 [Example 541, 3-amino-N-[(3R)-7-[(3R,4S)-3-amino-4-(fluoromethyl)pyrrolidin-1-yl]-2H,3H,4H-pyrano[2,3-b]pyridin-3-yl]-6-methylthieno[2,3-b]pyridine-2-carboxamide] |  | 0.2 to 2 µM |
| Cc1ccc2c(N)c(C(=O)N[C@H]3COc4nc(N5C[C@@H](CF)[C@H](N)C5)ccc4C3)sc2n1 [Example 542, 3-amino-N-[(3R)-7-[(3S,4R)-3-amino-4-(fluoromethyl)pyrrolidin-1-yl]-2H,3H,4H-pyrano[2,3-b]pyridin-3-yl]-6-methylthieno[2,3-b]pyridine-2-carboxamide] |  | 0.05 to 0.2 µM |
